Structures can show the parent of a compound that is named as a salt.
How the values were obtained:
[1] = Pharmacokinetic evaluation in mice; format: in vivo, C57BL/6 or C57 mice; settings: male, C57BL/6, mouse, plasma, intravenous injection 2 mg/kg, fasted, read-out: Apparent Volume of Distribution
Text: C57BL/6 or C57 male mice were selected as the test animals for this study. The LC/MS/MS method was employed to quantitatively determine the plasma drug concentrations at various time points after intravenous injection or intragastric administration of the test compound, aiming to evaluate the pharmacokinetic characteristics of the compound of the present disclosure in mice.
C57BL/6 or C57 mice (male, 20 to 30 g, 7 to 10 weeks old, Beijing Vital River).
A clear solution of the test compound was injected intravenously into the tail vein of C57BL/6 mice (fasted overnight) (vehicle: 10% DMSO/10% solutol/80% H2O), or administered intragastrically to C57 mice (fed). […] The mixture was thoroughly vortexed and mixed, and centrifuged at 6000 g for 3 minutes at 2 to 8° C. […] The mixture was thoroughly vortexed and mixed, and centrifuged at 6000 g for 3 minutes at 2 to 8° C. Plasma drug concentrations were determined by the LC-MS/MS method, and relevant pharmacokinetic parameters were calculated using Phoenix WinNonlin 8.2.0 pharmacokinetic software with non-compartmental model linear-log trapezoidal method.

[2] = Pharmacokinetic evaluation in beagle dogs; format: in vivo; settings: male, dog, plasma, intravenous injection 0.5 mg/kg, fed
Protocol: Male beagle dogs were selected as the experimental animals in this study.
Beagle dogs (male, 7 to 10 kg, Beijing Mars Biotechnology Co., Ltd.).
A clear solution of the test compound was slowly injected intravenously into beagle dogs (fed) via the peripheral vein (vehicle: […]/10% Solutol/85% H2O), or administered intragastrically to beagle dogs (fed). For intravenous administration, 0.5 mL of blood was collected from the peripheral vein at 0.083, 0.25, 0.5, 1, 2, 4, 6, 8, and 24 h after administration, placed in EDTA-2K anticoagulant tubes, and centrifuged at 3200 g for 10 minutes at 2 to 8° C. to separate the supernatant. For intragastric administration, 0.5 mL of blood was collected from the peripheral vein at 0.083, 0.25, 0.5, 1, 2, 4, 6, 8, and 24 h after administration, placed in EDTA-2K anticoagulant tubes, and centrifuged at 3200 g for 10 minutes at 2 to 8° C. to separate the supernatant. Plasma drug concentrations were determined by the LC-MS/MS method, and relevant pharmacokinetic parameters were calculated using Phoenix WinNonlin 6.3 pharmacokinetic software with non-compartmental model linear-log trapezoidal method.

SMILES: O=C1CCC(c2noc3ccc4c(NC(=O)CN5CCN(C[C@H]6CC[C@H](n7cc(NC(=O)c8coc(-c9ccnc(NCC%10CC%10)c9)n8)c(C(F)F)n7)CC6)CC5)cccc4c23)C(=O)N1 (stereo partly drawn) [Hydrochloride of Compound of Formula (I)]
- Vd [1]: 1.6 L/kg
- clearance [2]: 21.3 mL/min/kg
- half-life ([2]; read-out: Elimination Half-Life (converted)): 5.03 h
